The text below walks through data of patent publication US20250248979A1, “NOVEL GPX4 INHIBITORS AND USES THEREOF” (THE TRUSTEES OF COLUMBIA UNIVERSITY IN THE CITY OF NEW YORK, priority 2022, published 2025).

Entries after “also recorded” stand apart in the source; their conditions may differ. Like-named read-outs stand apart in the source and are kept apart here.

The subject of data set [1] is HT-1080 cells. Kind of data set: Cellular dose response assay, HT-1080 with and without Fer-1. Format: cell-based, human. Put shortly:
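Following overnight attachment (1500 cells per well), triplicate wells got 2-fold serial dilutions across 12 points, with or without Fer-1 for HT-1080, at 0.4% final DMSO. After 48 h incubation, luminescent ATP-based viability (CellTiter-Glo) was recorded.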

Data set [2] deals with lipid peroxidation in HT-1080 cells. The experiment in a line: C11-BODIPY lipid peroxidation flow cytometry assay. To be noted: HT-1080 cells, with and without fer-1. It is filed as cell-based, human.
A short description of data set [3]: in vitro. It is filed as in vitro ADME, human. To be noted: human, microsomes. The protocol: (§1) […]. The incubation timepoints measured were 0, 5, 10, 15, 30, and 45 minutes. All samples were prepared in duplicate and analyzed by LC-MS/MS.
Data set [4] can be described thus: in vitro. It is filed as in vitro ADME, mouse. The following applies: mouse, microsomes. The protocol:
as §1

The test system of data set [5] is SU-DHL-6. The experiment in a line: Cytotoxicity in DLBCL cells, SU-DHL-6. Format: cell-based, human. The following applies: for IC50: SU-DHL-6.
Data set [6] has as its system DTP cells derived from PC9. Kind of data set: Drug-tolerant persister cell model, DTP cells. The following applies: for % Viability Persister: 48 hours.
In data set [7] the target is T1, GPX4 (Homo sapiens, UniProt P36969).
T1 sequence (P36969 1-170 isoform P36969-2): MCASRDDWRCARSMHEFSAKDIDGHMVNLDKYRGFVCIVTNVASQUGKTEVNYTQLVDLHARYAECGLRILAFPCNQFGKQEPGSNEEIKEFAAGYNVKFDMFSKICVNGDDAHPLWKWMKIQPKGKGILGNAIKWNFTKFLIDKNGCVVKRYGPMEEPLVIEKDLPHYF
Kind of data set: GPX4 activity assay in cell lysates (NADPH-coupled). Format: biochemical. Further details: endogenous in cells; host or cells: A-673 cell lysate. The following applies: for IC50: mean±SD, n=3 (FIG. 84E), read-out: IC50 in the in vitro GPX4 activity assay. Put shortly: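 Native GPX4 in lysates of A-673 cells grown with 20 nM sodium selenite; lysate preincubated with compound 45 min at 37 °C in pH 8.0 buffer with 3 mM GSH, 0.5 mM NADPH and glutathione reductase. Reaction started with phosphatidylcholine hydroperoxide; NADPH consumption followed at 340 nm over 25 min; triplicates.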

Data set [8] concerns HepG2 cells. Kind of data set: Cellular dose response assay, HepG2. It is filed as cell-based, human. Summed up:
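Cells were seeded at 1500 per well, grown overnight, then treated in triplicate with 12-point 2-fold compound dilutions (0.4% DMSO final) for 48 h at 37 °C, 5% CO2. HT-1080 series were run with and without Fer-1. Viability was read by CellTiter-Glo luminescence.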

Data set [9] deals with Huh7 cells. Kind of data set: Cellular dose response assay, Huh7. It is filed as cell-based, human. Summed up: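 Cells seeded at 1500/well overnight, then treated in triplicate with 12-point 2-fold compound dilutions ± Fer-1 (0.4% DMSO final) for 48 h at 37 °C, 5% CO2. Viability read by CellTiter-Glo luminescence; error bars are SD of three technical replicates from a representative experiment.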

[10] abbreviates: with Fer-1, Table 10, read-out: IC50 (μM) HT1080 + Fer-1.
[11] abbreviates: Fer-1 1.0 μM, read-out: IC50 (μM) with Fer-1.

On to `COc1ccc(-c2ccc3c(C(=O)NC(C)(C)COC(=O)CCl)nn(C)c3c2)cc1Cl` [QW-446], for which the half-maximal inhibitory concentration (IC50) was 30.3 µM in data set [1] (HT1080 + Fer-1, read-out: IC50 (uM) HT1080 + Fer-1); 0.44 µM in data set [1] (read-out: IC50 HT1080); 0.49 µM in data set [7]. Also, in [1] (HT-1080), the ferroptosis selectivity amounted to 69. Besides, the Selectivity in data set [1] (ferroptosis selectivity, HT1080 + Fer-1 vs HT1080) was 69. The “lipid peroxidation (C11-BODIPY), result in words” value in data set [2] is “induced fer-1 rescuable increases in lipid peroxidation”. For the same molecule, the “Microsome Stability t1/2 (min) human” value in data set [3] worked out at 1.6 min. In data set [4], the “Microsome Stability t1/2 (min) mouse” value worked out at 1.2 min. In addition, in data set [5], the “ferroptosis induction / potency in SU-DHL-6 cells, result in words” value is given as “a potency that is similar to RSL3”. The “selectivity for DTPs vs PC9 parental cells, result in words” value in data set [6] is “show DTP selectivity relative to PC9 parental cells; also recorded: selective and similar or stronger cytotoxicity to DTP cells”. In addition, the “% Viability Persister” value in [6] (dose 0.5 μM) turned out to be 127.75%; in data set [6] (dose 10.0 μM), 26.50%; in [6] (dose 20.0 μM) it was 4.25%. The entries for the “% Viability Persister + 2 μM Fer-1” value in data set [6] (dose 0.5 μM), in data set [6] (dose 10.0 μM) and in [6] (dose 20.0 μM) were 110.75%, 107.50% and 27.00%, respectively. Also, the “GPX4 inhibitory activity, result in words” value in data set [7] is on record as “greater GPX4 inhibitory activity than QW-314 at 5 μM”. Besides, the “GPX4% inhibition at 2.5 μM” value in [7] turned out to be 79.1 ± 4.4%. Moreover, the “GPX4% inhibition at 5 μM” value in data set [7] (5 μM) is recorded as 88.1 ± 2.7%. Also, the GPX4 inhibition rate in [7] (concentration not given) stood at 90%.

In turn, `CC(C)(COC(=O)CCl)NC(=O)c1nn(Cc2cc(Cl)cc(Cl)c2)c2cc(-c3ccc(N4CCOCC4)c(Cl)c3)ccc12` [QW-852] had a Selectivity in [1] greater than 1000. Further, the half-maximal inhibitory concentration (IC50) is 0.0395 µM in [1] (read-out: IC50 against HT1080 cell lines); greater than 40 µM in data set [1] (setting [10]); 0.019 µM in [5] (24 h, read-out: IC50); 5110 µM in data set [5] (setting [11]). Further, in data set [2], the “lipid peroxidation (C11-BODIPY), result in words” value is “increase in lipid-ROS which can be attenuated by ferrostatin-1”. In addition, in data set [5], the “Selectivity^a (fold)” value was 269 fold. Also, the “selectivity for DTPs vs PC9 parental cells, result in words” value in [6] is “greater potency and selectivity to DTP cells”. In addition, the “% Viability Persister” value in data set [6] (dose 1.0 μM) worked out at 48.00%; in data set [6] (dose 10.0 μM), 3.25%. Besides, the “% Viability Persister + 2 μM Fer-1” value in data set [6] (dose 1.0 μM) turned out to be 93.75%. For the same molecule, in data set [7], the “GPX4 inhibitory activity, result in words” value is given as “greater GPX4 inhibitory activity than QW-446 at 2.5 μM concentration”. In addition, in data set [7] (4th generation), the “GPX4% inhibition at 2.5 μM” value amounted to 88.2 ± 13.3%.

Consider `COC(=O)c1ccc([C@@H]2c3[nH]c4ccccc4c3C[C@@H](C(=O)OC)N2C(=O)CCl)cc1` [RSL3, reference compound], for which, in data set [1], the Selectivity is recorded as 103.6. In addition, the IC50 in data set [1] (compounds alone, Table 4, read-out: IC50 (uM) HT1080^a) came out at 0.044 µM; in data set [1] (compounds alone, Table 7, read-out: IC50 (uM) HT1080^a), 0.044 µM; in [1] (compounds alone, read-out: IC50 (μM) HT1080^a), 0.044 µM; in data set [1] (compounds and fer-1 1.0 μM, read-out: IC50 (μM) HT1080^b) it was 4.6 µM; in data set [1] (setting [10]), 4.6 µM; in data set [1] (with fer-1, Table 4, read-out: IC50 (uM) HT1080^b) it was 4.6 µM. Further, the IC50 in data set [1] (with fer-1, Table 7, read-out: IC50 (uM) HT1080^b) was 4.6 µM; in data set [1] (without Fer-1, Table 10, read-out: IC50 HT1080) it was 0.0444 µM; in data set [8] (compounds alone, Table 4, read-out: IC50 (uM) HEPG2^a), 5.4 µM; in data set [8] (compounds alone, Table 7, read-out: IC50 (uM) HEPG2^a), 5.4 µM; in data set [8] (compounds alone, read-out: IC50 (μM) HEPG2^a), 5.4 µM; in [8] (compounds and fer-1 1.0 μM, read-out: IC50 (μM) HEPG2^b) it was 32.2 µM. Moreover, the IC50 in data set [8] (with fer-1, Table 4, read-out: IC50 (uM) HEPG2^b) stood at 32.2 µM; in data set [8] (with fer-1, Table 7, read-out: IC50 (uM) HEPG2^b), 32.2 µM; in data set [9] (compounds alone, Table 4, read-out: IC50 (uM) Huh7^a), 0.6 µM; in data set [9] (compounds alone, Table 7, read-out: IC50 (uM) Huh7^a) it was 0.6 µM; in data set [9] (with fer-1, Table 4, read-out: IC50 (uM) Huh7^b), 34.4 µM; in [9] (with fer-1, Table 7, read-out: IC50 (uM) Huh7^b) it was 34.4 µM. Further, the IC50 in data set [5] (24 h, read-out: IC50) was determined as 0.019 µM; in [5] (setting [11]), 1.35 µM; in data set [7], 7.6 µM. Further, in data set [3], the “Microsome Stability t1/2 (min) human” value worked out at 14 min. Moreover, the “Microsome Stability t1/2 (min) mouse” value in data set [4] came out at 2.4 min. Also, the “Selectivity^a (fold)” value in [5] was found to be 71 fold. Besides, in data set [6] (dose 1.0 μM), the “% Viability Persister” value was 6.00%. Further, the “GPX4% inhibition at 200 (μM)” value in data set [7] (200 μM, mean ± s.d., n = 3) turned out to be 112.5 ± 6.5%.
